One may read the viability as a read-out of living cells in per cent, often relative to untreated cells.

The data set is described as follows: in vitro. The following applies: human, hela cells, % viability.
In the case of `CC(=O)c1ccc(-c2nccnc2NCc2cccnc2)s1` [CBK037050], the viability at 28.5 h, 10 µM was found to be 99.5%. Regarding `C=CCNc1nccnc1-c1ccc(C(C)=O)s1` [CBK037052], the viability at 28.5 h, 10 µM is 88.8%. To `OC(CNc1nccnc1-c1ccsc1)COc1ccccc1` (centres unmarked) [CBK037057] belongs 96.3%; to `O=C(c1ccc(-c2nccnc2NCc2cccs2)cc1)N1CCOCC1` [CBK037059], 98.8%; to `COc1cc(-c2cc(N3CCN(Cc4cccnc4)CC3)n3nccc3n2)cc(OC)c1OC` [CBK037063], 95.9%.

With `OCc1ccc(-c2nccnc2NCc2cccc(C(F)(F)F)c2)cc1` [CBK037076], the viability at 28.5 h, 10 µM is 114%. As for `Oc1cccc(-c2nccnc2N2CCN(c3ccncc3)CC2)c1` [CBK037079], the figure is 113%. For the compound `O=C(O)c1cccc(-c2cc(N3CCN(Cc4cccnc4)CC3)n3nccc3n2)c1` [CBK037080], the viability at 28.5 h, 10 µM came out at 106%. For the compound `OC(CNc1nccnc1-c1ccccc1Cl)COc1ccccc1` (centres unmarked) [CBK037085], the viability at 28.5 h, 10 µM was found to be 92%. As to `OCc1ccc(-c2nccnc2NCc2ccccn2)cc1` [CBK037088], the viability at 28.5 h, 10 µM came to 106%. As for `CC(C)Nc1nccnc1-c1cccc(O)c1` [CBK037089], the figure is 97.3%; as for `Cc1cccc(-c2ncc(NC(=O)COc3ccc([N+](=O)[O-])cc3)nc2-c2cccnc2)c1` [CBK037096], 97.8%; as for `CN1CCN(c2cc(-c3cccc(CO)c3)nc3ccnn23)CC1` [CBK037099], 98.1%.

`CCCNc1nccnc1-c1ccc(F)c(Cl)c1` [CBK037100]: the viability at 28.5 h, 10 µM is 104%.

For the compound `CC(CCCC(C)(C)O)Nc1cc(N2CCN(C)CC2)n2nccc2n1` (centres unmarked) [CBK037103], the viability at 28.5 h, 10 µM was found to be 98.2%. For the compound `COc1ccc(-c2nc(NC(=O)c3cccc(S(C)(=O)=O)c3)cnc2-c2ccc(F)cc2)cc1` [CBK037110], the viability at 28.5 h, 10 µM turned out to be 100%.

As to `OCc1cccc(-c2cc(NCc3ccccc3)n3nccc3n2)c1` [CBK037113], the viability at 28.5 h, 10 µM was determined as 95.6%.

As for `CCSc1ccc(-c2cc(N(C)c3cccc(C)c3)n3nccc3n2)cc1` [CBK037115], the viability at 28.5 h, 10 µM is 100%. To `CCCC/C=C/c1nccnc1NCc1ccco1` [CBK037116] belongs 105%; to `CC(C)[C@@H](CO)Nc1cc(-c2cccc(Br)c2)nc2ccnn12` [CBK037117], 93.9%. As for `COc1ccc(Nc2cc(-c3cccc(NC(C)=O)c3)ncn2)cn1` [CBK037125], the figure is 95.1%; as for `OCCN1CCN(c2cc(N3CCN(c4ccccn4)CC3)n3nccc3n2)CC1` [CBK037129], 100%.

Turning to `CN(C)CCNC(=O)c1cccc(-c2cc(N3CCCN(C)CC3)n3nccc3n2)c1` [CBK037143], the viability at 28.5 h, 10 µM came to 86.2%. For `CC(=O)Nc1cccc(-c2cc(NCc3ccccc3)n3nccc3n2)c1` [CBK037153], the viability at 28.5 h, 10 µM is 97.2%. In the case of `CN1CCN(c2cc(NCC(c3cccnc3)N(C)C)nc3ccnn23)CC1` (centres unmarked) [CBK037157], the viability at 28.5 h, 10 µM was 106%. Turning to `COc1cc(Nc2cncc(-c3ccccc3CO)n2)cc(OC)c1OC` [CBK037160], the viability at 28.5 h, 10 µM was 95.4%. To `COc1ccc(Nc2cc(-c3ccccc3OC)ncn2)cn1` [CBK037176] belongs 88.9%; to `COc1cc(-c2cc(N(C)CCN(C)C)n3nccc3n2)cc(OC)c1OC` [CBK037181], 110%; to `Cc1cc(-c2nccnc2N2CCN(CCN(C)C)CC2)cc(C)c1O` [CBK037184], 105%. To `O=C(Cc1ccccc1Oc1ccccc1)Nc1cnc(-c2ccc(F)cc2)c(-c2ccco2)n1` [CBK037194] belongs 92.6%.

Turning to `c1cncc(-c2cncc(NCC3CCOCC3)n2)c1` [CBK037195], the viability at 28.5 h, 10 µM amounted to 92.7%.

Take `O=C(CSc1ccccc1)Nc1cnc(-c2ccc(F)cc2)c(-c2ccco2)n1` [CBK037196]: the viability at 28.5 h, 10 µM is 101%. For `Cc1cccc(-c2ncc(NC(=O)CCc3cccc(Cl)c3)nc2-c2cccnc2)c1` [CBK037201], the viability at 28.5 h, 10 µM came out at 97.2%. `c1cncc(-c2nccnc2NCc2ccco2)c1` [CBK037204]: the viability at 28.5 h, 10 µM is 102%.

Regarding `COc1cc(CNc2cc(-c3ccc(F)c(Cl)c3)nc3ccnn23)cc(OC)c1OC` [CBK037209], the viability at 28.5 h, 10 µM was 107%.

As for `CN(CC(=O)Nc1cnc(-c2ccc(F)cc2)c(-c2ccco2)n1)S(=O)(=O)c1ccccc1` [CBK037214], the viability at 28.5 h, 10 µM was 100%. Regarding `Clc1cc(NCCc2c[nH]c3ccccc23)n2nccc2n1` [CBK037218], the viability at 28.5 h, 10 µM amounted to 40.6%. As for `CN(C)CCN(C)c1cc(-c2ccc(F)c(Cl)c2)nc2ccnn12` [CBK037230], the figure is 90.4%; as for `Clc1cccc(-c2cc(NCc3cccs3)n3nccc3n2)c1` [CBK037238], 105%. On to `COc1ccc(C(=O)OC(C)(C)C)c(-c2cncc(N3CCN(CCO)CC3)n2)c1` [CBK037239], for which the viability at 28.5 h, 10 µM was 101%. `CC(C)[C@@H](CO)Nc1cc(Cl)nc2ccnn12` [CBK037242]: the viability at 28.5 h, 10 µM was found to be 96.2%. As for `COc1ccc(-c2cc(N3CCCN(C)CC3)n3nccc3n2)cc1` [CBK037244], the figure is 106%. As for `CN(C)C(CNc1cncc(-c2cccc(Cl)c2)n1)c1cccnc1` (centres unmarked) [CBK037247], the figure is 113%; as for `CC(C)[C@@H](CO)Nc1cncc(-c2cccc(Cl)c2)n1` [CBK037261], 102%. Consider `COc1cc(-c2nccnc2NCCCO)cc(OC)c1OC` [CBK037274], for which the viability at 28.5 h, 10 µM worked out at 105%. To `FC(F)(F)c1cc(-c2cn3ccnc3c(NC3CCOCC3)n2)cc(C(F)(F)F)c1` [CBK037278] belongs 107%; to `Clc1cccc(-c2cncc(N3CCN(Cc4ccccn4)CC3)n2)c1` [CBK037282], 99.5%. To `c1cncc(-c2nccnc2NCCCN2CCOCC2)c1` [CBK037286] belongs 107%; to `FC(F)(F)c1cccc(-c2nccnc2NCCCN2CCOCC2)c1` [CBK037288], 97.6%; to `CN(C)C(CNc1nccnc1-c1ccccc1F)c1cccnc1` (centres unmarked) [CBK037290], 101%. In the case of `FC(F)(F)c1cccc(-c2nccnc2NCc2cccs2)c1` [CBK037298], the viability at 28.5 h, 10 µM was 105%. As for `CC(=O)c1ccc(-c2nccnc2NCCc2ccncc2)s1` [CBK037300], the figure is 99.9%. To `Oc1ccc(-c2nccnc2NCCc2ccncc2)cc1` [CBK037302] belongs 94.3%; to `COc1cc(-c2nccnc2NCCc2ccccn2)cc(OC)c1OC` [CBK037307], 91.4%; to `c1cn2cc(-c3ccc(N4CCOCC4)cc3)nc(NCC3CCOCC3)c2n1` [CBK037308], 96.3%. As for `OCc1ccccc1-c1cncc(NCC2CCOCC2)n1` [CBK037309], the figure is 113%; as for `Cc1cccc(C)c1-c1cn2ccnc2c(NC2CCOCC2)n1` [CBK037311], 91.6%; as for `CCNc1nccnc1-c1ccccc1Cl` [CBK037313], 79.9%. On to `COCCNc1nc(-c2cccc3cccnc23)cn2ccnc12` [CBK037314], for which the viability at 28.5 h, 10 µM was found to be 95.3%. As for `c1coc(-c2nccnc2NCCc2c[nH]c3ccccc23)c1` [CBK037316], the figure is 95.2%; as for `COc1ncc(-c2nccnc2NCc2cccs2)c(OC)n1` [CBK037318], 95.9%; as for `COc1cc(CNc2nccnc2-c2ccc(F)cc2)cc(OC)c1OC` [CBK037328], 90.3%.

For `OC1CCC(Nc2nc(-c3ccccc3)cn3ccnc23)CC1` (centres unmarked) [CBK037329], the viability at 28.5 h, 10 µM was 98.5%.

For `OCc1ccc(-c2nccnc2NCC2CC2)cc1` [CBK037334], the viability at 28.5 h, 10 µM is 86%.

As for `Clc1ccccc1-c1nccnc1NCCc1c[nH]c2ccccc12` [CBK037337], the viability at 28.5 h, 10 µM was found to be 106%. With `c1coc(-c2nccnc2NCc2cccs2)c1` [CBK037340], the viability at 28.5 h, 10 µM came out at 104%. To `Oc1cccc(-c2nccnc2NCc2cccs2)c1` [CBK037343] belongs 88.8%. As for `FC(F)(F)c1cccc(-c2nccnc2NCc2ccc3c(c2)OCO3)c1` [CBK037350], the figure is 94.2%. Turning to `COc1ccc(C(=O)OC(C)(C)C)c(-c2nccnc2N2CCCN(C)CC2)c1` [CBK037360], the viability at 28.5 h, 10 µM came out at 103%.

With `CCCC/C=C/c1cncc(N2CCN(c3ccccc3C#N)CC2)n1` [CBK037369], the viability at 28.5 h, 10 µM turned out to be 93.6%. Consider `CCNc1nc(-c2ccsc2)cn2ccnc12` [CBK037375], for which the viability at 28.5 h, 10 µM worked out at 87.9%. As for `c1ccc(CCNc2nccnc2-c2ccncc2)nc1` [CBK037378], the figure is 89.3%. As for `N#Cc1ccccc1N1CCN(c2cncc(-c3ccc(CO)cc3)n2)CC1` [CBK037383], the figure is 86.9%; as for `Oc1cccc(-c2nccnc2NCCc2ccccn2)c1` [CBK037388], 104%. `CC(C)[C@H](CO)Nc1nccnc1-c1ccco1` [CBK037390]: the viability at 28.5 h, 10 µM worked out at 99%.

As for `CN(C)C(=O)COc1cccc(Nc2nc(-c3cccc4ccccc34)cn3ccnc23)c1` [CBK037393], the viability at 28.5 h, 10 µM worked out at 82.1%.

As for `COc1cc(Nc2nc(-c3c(OC)cccc3OC)cn3ccnc23)cc(OC)c1OC` [CBK037395], the viability at 28.5 h, 10 µM is 95.5%. To `COc1cc(CNc2nccnc2-c2cccc(CO)c2)cc(OC)c1` [CBK037403] belongs 90.6%; to `CC(=O)c1ccc(-c2nccnc2N[C@@H](CO)C(C)C)s1` [CBK037404], 100%; to `CC(C)[C@H](CO)Nc1nccnc1-c1ccccc1CO` [CBK037408], 98.2%. For `CN(Cc1ccccc1)c1nccnc1-c1ccccc1F` [CBK037410], the viability at 28.5 h, 10 µM was determined as 95%. Turning to `CN(Cc1ccccc1)c1nccnc1-c1cccnc1` [CBK037414], the viability at 28.5 h, 10 µM turned out to be 93.5%. As for `Fc1ccc(-c2nccnc2NCc2ccncc2)cc1Cl` [CBK037422], the figure is 95.5%.

The values above are taken from publication PMC12040169 (PLOS Biology, 2025).
